Experimental data: article PMC4777897 (Progress in neuro-psychopharmacology & biological psychiatry, 2015)

How the values were obtained:
[1] = test system: participants who met criteria for cocaine use disorder; assay: Reinforcing effects: choice session, cocaine vs money self-administration; assay type: in vivo, human; details: Day 13; nepicastat 0 or 160 mg; cocaine 0 or 20 mg IV
[2] = test system: rats; details: ref Schroeder et al., 2013; cited from earlier work
[3] = test system: participants who met criteria for cocaine use disorder; assay: Cocaine-induced cardiovascular effects; assay type: in vivo, human; details: nepicastat 0, 80, 160 mg; cocaine 0, 10, 20, 40 mg IV; n = 13
[4] = test system: DA and NE release in mPFC and NAc; details: rats, microdialysis; ref Devoto et al., 2014; cited from earlier work
[5] = test system: participants who met criteria for cocaine use disorder; assay: Cocaine-induced subjective effects; assay type: in vivo, human; details: VAS
[6] = test system: participants who met criteria for cocaine use disorder; assay: Adverse events, inpatient study of oral nepicastat with IV cocaine; assay type: in vivo, human
[7] = Plasma pharmacokinetics of cocaine after 10 mg IV infusion; details: cocaine 10 mg IV
[8] = Treatment–Cocaine period, nepicastat group n = 14

Cl.NCc1c[nH]c(=S)n1[C@H]1CCc2c(F)cc(F)cc2C1.O [nepicastat, (S)-5-aminomethyl-1-(5,7-difluoro-1,2,3,4-tetrahydronaphth-2-yl)-1,3-dihydroimidazole-2-thione hydrochloride monohydrate]
Main effect on choices for cocaine vs money (ANOVA) [1]: did not reveal a main effect
Breakpoint for cocaine [2]: significantly lowered
Main effect on peak heart rate (ANOVA) [3]: one was detected
Main effect on peak systolic or diastolic blood pressure (ANOVA) [3]: did not reveal a main effect
DA release in the mPFC and NAc [4]: increasing DA release in the mPFC but not in the NAc
Effect on negative subjective effects ([5]; nepicastat 80 and 160 mg oral with IV cocaine): did not increase
Reduction of the positive subjective effects produced by cocaine ([5]; nepicastat 80 and 160 mg oral, n = 13): ~ 25%
Incidence of Abnormal dreams [6, 8]: 0 (0) number (%) of subjects
Incidence of Arthralgia [6, 8]: 2 (14) number (%) of subjects
Incidence of Back pain [6, 8]: 0 (0) number (%) of subjects
Incidence of Depressed mood [6, 8]: 1 (7) number (%) of subjects
Incidence of Dizziness [6, 8]: 0 (0) number (%) of subjects
Incidence of Dyspepsia [6, 8]: 2 (14) number (%) of subjects
Incidence of Gastroesophageal reflux disease [6, 8]: 3 (21) number (%) of subjects
Incidence of Headache [6, 8]: 2 (14) number (%) of subjects
Incidence of Insomnia [6, 8]: 4 (29) number (%) of subjects
Incidence of Myalgia [6, 8]: 0 (0) number (%) of subjects
Incidence of Nausea [6, 8]: 1 (7) number (%) of subjects
Incidence of Neck pain [6, 8]: 2 (14) number (%) of subjects
Incidence of Vessel puncture site hematoma [6, 8]: 0 (0) number (%) of subjects
Incidence of Vessel puncture site pain [6, 8]: 4 (29) number (%) of subjects
Safety and tolerability (number, type, severity and duration of AEs vs placebo) ([6]; oral nepicastat 80 and 160 mg during IV cocaine exposure): safe and well-tolerated
Effect on PK parameters of benzoylecgonine or ecgonine methyl ester ([7]; Day 3 vs Day 11, data not shown): None of the PK parameters for benzoylecgonine or ecgonine methyl ester showed statistically significant changes
Effect on kinetics, metabolism or clearance of cocaine or its metabolites ([7]; oral nepicastat 160 mg): did not change
